Source: PMC8842277, “Highly Antiproliferative Latonduine and Indolo[2,3-c]quinoline Derivatives: Complex Formation with Copper(II) Markedly Changes the Kinase Inhibitory Profile” (Journal of Medicinal Chemistry, 2022)
Where two headings read alike, the source gives them in different places.

Columns and labels:
[1] = Proton dissociation constants by UV–vis titration; type: physicochemical; settings: 30–70% (w/w) DMSO–water; for pKa: DMSO:water 30:70 (w/w) solvent mixture
Protocol: The protonation processes of HL^1nm and its morpholine counterpart HL^1 (Chart 3) and the solution stability of their copper(II) complexes (1nm and 1) were characterized by UV–vis spectrophotometry. […] Based on the characteristic changes in the UV–vis spectra for HL^1nm in the pH range 2–6 (Figure 3a), two relatively well-separated proton dissociation processes were observed and their pKa values were determined (Table 1).
(§1) An Agilent Carry 8454 diode array spectrophotometer was used to record the UV–visible (UV–vis) spectra in the interval 200–800 nm. The path length was 2 or 0.5 cm. Spectrophotometric titrations were performed on samples containing the proligands HL^1, HL^1nm, or their copper(II) complexes (1 and 1nm; see Chart 2) by a KOH solution in the presence of 0.1 M KCl in a DMSO:water 30:70 (w/w) mixture as a solvent at 25.0 ± 0.1 °C in the pH range from 2 to 11. […] An Orion 710A pH meter equipped with a Metrohm combined electrode (type 6.0234.100) and a Metrohm 665 Dosimat burette were used for the pH measurements and titrations. […] The average water ionization constant (pKw) is 14.52 ± 0.05, which corresponds well to the literature data.[103] Argon was passed over the solutions during the titrations. Proton dissociation constants (pKa) of the ligand, overall stability constants (log β) of the copper(II) complexes, and the individual spectra of the various species present in the solution were calculated by the computer program PSEQUAD.[104] β (MpLqHr) is defined for the general equilibrium pM + qL + rH MpLqHr as β (MpLqHr) = [MpLqHr]/[M]^p[L]^q[H]^r where M denotes the copper(II) ion and L the completely deprotonated ligand. The calculations were always made from the experimental titration data measured in the absence of any precipitate in the solution.

[2] = Overall stability constants of copper(II) complexes by UV–vis titration; type: physicochemical; settings: 30–70% (w/w) DMSO–water, 298 K, I = 0.10 M (KCl)
Text: The tridentate coordination via the N,N,N donor set is assumed in [Cu(HL^1nm)]^2+ at such low pH. […] The deprotonation of the non-coordinating hydrazonic nitrogen is likely, and complex [Cu(L^1nm)]^+ is formed. […] However, the absorbance is decreased in the whole wavelength range due to precipitate formation. By the deconvolution of the recorded UV–vis spectra, overall stability constants for the complexes [Cu(HL^1nm)]^2+ and [Cu(L^1nm)]^+ were computed, and log β for [Cu(L^1nm)(OH)] was only estimated (Table 1). In the case of the morpholine hybrid, a somewhat different speciation was obtained as the presence of the pendant morpholine moiety had to be taken into consideration. Log β values for [CuH(HL^1)]^3+, [CuH(L^1)]^2+, and [Cu(L^1)]^+ were computed from the spectrophotometric titration data (Table 1). Since the molar absorbance spectra of [CuH(HL^1)]^3+ and [CuH(L^1)]^2+ complexes resemble those of [Cu(HL^1nm)]^2+ and [Cu(L^1nm)]^+ (Figure 4b), the same coordination modes are likely in these species in couples. […] Increasing the pH (pH > 5), the absorbance is decreased in the whole wavelength range, no isosbestic points are found (indicating the formation of some precipitate), while the λmax is increased. Formation of a mixed hydroxido species [CuH(L^1)(OH)]^+ is also possible. However, the deprotonation of the morpholinium group can take place as well (formation of [Cu(L^1)]^+) in this pH range. As these two processes are overlapping, the two species could not be well distinguished, and the obtained stability constant is quite uncertain.
as §1

[3] = tested on: normal human embryonal lung fibroblast cells (MRC-5); assay: MTT antiproliferative assay; type: cell-based; settings: read-out: IC50 MRC-5 benign, mean
Protocol: (§2) The in vitro antiproliferative activity of the compounds was tested in doxorubicin-sensitive Colo205 and multidrug-resistant Colo320 human colon adenocarcinoma cell lines as well as in normal human embryonal lung fibroblast cells (MRC-5) by MTT assay.
(§3) Human colonic adenocarcinoma cell lines Colo 205 doxorubicin-sensitive (ATCC-CCL-222) and Colo 320/MDR-LRP multidrug resistant over-expressing ABCB1 (MDR1)-LRP (ATCC-CCL-220.1) were purchased from LGC Promochem, Teddington, UK. The cells were cultured in an RPMI 1640 medium supplemented with 10% heat-inactivated fetal bovine serum, 2 mM L-glutamine, 1 mM Na-pyruvate, and 10 mM HEPES. The semi-adherent human colon cancer cells were detached with Trypsin-Versene (EDTA) solution for 5 min at 37 °C. An MRC-5 human embryonal lung fibroblast cell line (ATCC CCL-171) was purchased from LGC Promochem, Teddington, UK. The cells were cultured in Eagle’s minimal essential medium (EMEM, containing 4.5 g L^–1 glucose) supplemented with a non-essential amino acid mixture, a selection of vitamins, and 10% heat-inactivated fetal bovine serum. The HCT-116 colon carcinoma cells and isogenic p53-knock-out subline were a gift of Prof. Bert Vogelstein from The Johns Hopkins Oncology Center. Cells were cultured in McCoy’s 5A medium supplemented with 10% heat-inactivated fetal bovine serum and 4 mM L-glutamine. All cell lines were incubated at 37 °C, in a 5% CO2, 95% air atmosphere.
(§4) MRC-5 non-cancerous human embryonic lung fibroblast and human colonic adeno-carcinoma cell lines (doxorubicin-sensitive Colo 205 and multidrug resistant Colo 320 colonic adenocarcinoma cells) were used to determine the effect of compounds on cell growth. The effects of increasing concentrations of compounds on cell growth were tested in 96-well flat-bottomed microtiter plates. The compounds were dissolved in DMSO and stock solutions of 10 mM were prepared. These were further diluted in the appropriate cell culture medium by twofold serial dilution starting from 100 or 10 μM for the compounds. The adherent human embryonal lung fibroblast cells were cultured in 96-well flat-bottomed microtiter plates using EMEM supplemented with 10% heat-inactivated fetal bovine serum. The density of the cells was adjusted to 1 × 10^4 cells in 100 μL per well, the cells were seeded for 24 h at 37 °C, 5% CO2, then the medium was removed from the plates containing the cells, and the dilutions of compounds previously made in a separate plate were added to the cells in 200 μL. In the case of the colonic adenocarcinoma cells, the twofold serial dilutions of compounds were prepared in 100 μL of RPMI 1640, horizontally. The semi-adherent colonic adenocarcinoma cells were treated with Trypsin-Versene (EDTA) solution. They were adjusted to a density of 1 × 10^4 cells in 100 μL of RPMI 1640 medium and were added to each well, with the exception of the medium control wells. The final volume of the wells containing compounds and cells was 200 μL. The culture plates were incubated at 37 °C for 72 h; at the end of the incubation period, 20 μL of MTT (thiazolyl blue tetrazolium bromide, Sigma) solution (from a stock solution of 5 mg mL^–1) was added to each well. After incubation at 37 °C for 4 h, 100 μL of sodium dodecyl sulfate (SDS) (Sigma) solution (10% in 0.01 M HCI) was added to each well and the plates were further incubated at 37 °C overnight. Cell growth was determined by measuring the optical density (OD) at 540/630 nm with a Multiscan EX ELISA reader (Thermo Labsystems, Cheshire, WA, USA). […] Curves were fitted by GraphPad Prism software[57] using the sigmoidal dose–response model (comparing variable and fixed slopes). The IC50 values were obtained from at least three independent experiments. Tests in adherent HCT-116 colon carcinoma cells and an isogenic p53-knock-out subline thereof were performed in a similar manner, with 1.5 × 10^3 cells seeded in 100 μL of McCoy’s 5A medium (Sigma-Aldrich) per well. […]

[4] = design: method as in PMID 31125040; settings: cited from earlier work
[5] = Solubility in water/DMSO 99/1; type: physicochemical
Protocol: To a solution of HL^1 (203 mg, 0.45 mmol) in isopropanol (10 mL) a solution of CuCl2·2H2O (77 mg, 0.45 mmol) in methanol (500 μL) was added. The mixture was heated at reflux for 1 h, cooled to room temperature, and allowed to stand at 4 °C overnight. The product was filtered off, washed with isopropanol (3 mL), and dried in vacuo overnight to give a red-brown powder. Yield: 245 mg. Solubility in water/DMSO 99/1: ≥11 mg mL^–1.

[6] = tested on: doxorubicin-sensitive Colo205 human colon adenocarcinoma cells; assay: MTT antiproliferative assay; type: cell-based; settings: for selectivity factor (SF) Colo205: IC50 MRC-5/IC50 Colo205; for IC50: MTT, 72 h
Protocol: as §2, §3, §4

[7] = tested on: multidrug-resistant Colo320 human colon adenocarcinoma cells; assay: MTT antiproliferative assay; type: cell-based; settings: for selectivity factor (SF) Colo320: IC50 MRC-5/IC50 Colo320; for IC50: MTT, 72 h
Protocol: as §2, §3, §4

[8] = Thermodynamic solubility, UV–vis of saturated solutions; settings: water, 298 K
Protocol: The concentration of the compounds was determined by UV–vis spectrophotometry using stock solutions of the compounds with a known concentration dissolved in pure DMSO and 50% (v/v) DMSO/buffered aqueous solution for the calibration.

Row | Compound | Solubility in water/DMSO 99/1 [5] | selectivity factor (SF) Colo205 [6] | IC50 [6] | selectivity factor (SF) Colo320 [7] | IC50 [7] | IC50 ([3]; 72 h) | also measured
1 | C(=N\N=C1/NCc2ccccc2-c2c1[nH]c1ccccc21)/c1ccc(CN2CCOCC2)cn1 [HL^1] |  |  |  |  |  |  | pKa ([1]; 298 K, I = 0.10 M (KCl), read-out: pKa2): 4.53 ± 0.02; pKa ([1]; 298 K, I = 0.10 M (KCl), read-out: pKa3): 5.65 ± 0.02; log β [CuH(HL^1)]^3+ [2]: 12.38 ± 0.01; log β [CuH(L^1)]^2+ [2]: 8.57 ± 0.01; IC50 ([3]; Homo sapiens, MRC5, 72 h): 3.02 µM
2 | CC(=NN=C1NCc2ccccc2-c2c1[nH]c1ccccc21)c1ccccn1 [HL^3nm] |  |  |  |  |  |  | log β (copper(II) complexes of HL^3nm) [4]: 6.39; log β [Cu(HL^3nm)]^2+ [4]: 10.96
3 | C(=NNC1=NCc2ccccc2-c2c1[nH]c1ccccc21)c1ccc(CN2CCOCC2)cn1.[Cl][Cu][Cl] [compound 1, CuCl2(HL^1)·H2O] | ≥ 11 mg mL^–1 | 1.33 | 1.43 µM | 0.83 | 2.29 µM | 1.9 µM | pKa [CuH(HL^1)]^3+ ([1]; 298 K, I = 0.10 M (KCl)): 3.81; pKa [CuH(L^1)]^2+ ([1]; overlapping species (footnote a)): 5.71
4 | Brc1ccc2[nH]c3c(c2c1)-c1ccccc1CN=C3NN=Cc1ccc(CN2CCOCC2)cn1.[Cl][Cu][Cl] [compound 2, CuCl2(HL^2)·2H2O] | ≥ 14 mg mL^–1 | 2.01 | 2.74 µM | 1.73 | 3.19 µM | 5.52 µM | 
5 | CC(=NNC1=NCc2ccccc2-c2c1[nH]c1ccccc21)c1ccc(CN2CCOCC2)cn1.[Cl][Cu][Cl] [compound 3, CuCl2(HL^3)·0.2C3H7OH·0.3H2O] | ≥ 10 mg mL^–1 | 1.80 | 0.23 µM | 1.23 | 0.335 µM | 0.413 µM | Thermodynamic solubility (S) ([8]; pH 5, 20 mM MES buffer): 63.4 µM; Thermodynamic solubility (S) ([8]; pH 7.4, 20 mM HEPES): 6.0 µM
